Twelve compounds from article PMC8536799 (Journal of medicinal chemistry, 2021) can be followed below.

The target of series [1] is EV-A71 3C^pro (Human enterovirus 71, UniProt Q66478). In words: FRET-based enzymatic assay, EV-A71 3C^pro. Type of series: biochemical.
The target in series [2] is EV-A71 2A^pro (Human enterovirus 71, UniProt Q66478). In words: FRET-based enzymatic assay, EV-A71 2A^pro. The class given is biochemical.
In series [3] the target is EV-D68 3C^pro (Human enterovirus D68, UniProt Q68T42). The series can be described thus: FRET-based enzymatic assay, EV-D68 3C^pro. Type of series: biochemical.
Chain of EV-D68 3C^pro (Q68T42 1549-1731 limits assumed): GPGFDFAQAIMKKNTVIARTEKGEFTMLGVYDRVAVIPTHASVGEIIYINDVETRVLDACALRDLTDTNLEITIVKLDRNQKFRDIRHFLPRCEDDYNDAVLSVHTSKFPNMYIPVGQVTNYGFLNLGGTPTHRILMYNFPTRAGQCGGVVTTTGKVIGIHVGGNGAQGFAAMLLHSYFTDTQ
Series [4] addresses EV-D68 2A^pro (Human enterovirus D68, UniProt Q68T42). The series can be described thus: FRET-based enzymatic assay, EV-D68 2A^pro. The class given is biochemical.
In series [5] the test system is Vero E6 cells. The series can be described thus: Cytotoxicity, neutral red uptake assay in Vero E6 cells.
Assay in series [6]: as above
The following applies: African green monkey.

Series [7] deals with Calu-3 cells. In words: Cytotoxicity in Calu-3 cells.
In series [8] the target is MERS-CoV M^pro (Middle East respiratory syndrome-related coronavirus, UniProt K9N7C7). The class given is biochemical.
Chain of MERS-CoV M^pro (K9N7C7 3248-3553 limits assumed): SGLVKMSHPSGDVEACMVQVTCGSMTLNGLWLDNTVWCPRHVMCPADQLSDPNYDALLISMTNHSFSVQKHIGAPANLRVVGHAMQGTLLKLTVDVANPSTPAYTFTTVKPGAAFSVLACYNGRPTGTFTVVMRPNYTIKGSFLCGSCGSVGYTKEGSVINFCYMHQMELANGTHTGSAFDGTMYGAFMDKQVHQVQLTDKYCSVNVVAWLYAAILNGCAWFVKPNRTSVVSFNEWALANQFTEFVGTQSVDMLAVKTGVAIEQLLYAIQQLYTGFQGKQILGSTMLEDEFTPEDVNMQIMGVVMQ
The target in series [9] is SARS-CoV M^pro (Severe acute respiratory syndrome coronavirus, UniProt P0C6X7). The series can be described thus: biochemical. The following applies: IC50 against SARS-CoV M^pro.
Series [10] deals with HCoV-OC43 M^pro (Human coronavirus OC43, UniProt P0C6X6). The series can be described thus: FRET-based enzymatic assay, HCoV-OC43 M^pro.
Chain of HCoV-OC43 M^pro (P0C6X6 3247-3549 limits assumed): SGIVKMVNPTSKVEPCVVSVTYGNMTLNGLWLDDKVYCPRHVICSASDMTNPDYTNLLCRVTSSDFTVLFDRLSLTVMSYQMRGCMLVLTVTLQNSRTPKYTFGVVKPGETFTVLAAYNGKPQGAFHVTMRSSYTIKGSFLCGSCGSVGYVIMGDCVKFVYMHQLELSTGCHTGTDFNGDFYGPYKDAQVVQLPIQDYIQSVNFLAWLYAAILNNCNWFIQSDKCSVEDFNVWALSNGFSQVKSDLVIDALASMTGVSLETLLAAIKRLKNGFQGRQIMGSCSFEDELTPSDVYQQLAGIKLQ

Chain of EV-A71 2A^pro (Q66478 863-1012 limits assumed): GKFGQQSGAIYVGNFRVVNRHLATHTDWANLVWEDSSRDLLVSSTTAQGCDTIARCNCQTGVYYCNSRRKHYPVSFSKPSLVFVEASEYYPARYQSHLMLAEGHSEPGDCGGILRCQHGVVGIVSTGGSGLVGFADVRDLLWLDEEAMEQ
Chain of EV-D68 2A^pro (Q68T42 862-1008 limits assumed): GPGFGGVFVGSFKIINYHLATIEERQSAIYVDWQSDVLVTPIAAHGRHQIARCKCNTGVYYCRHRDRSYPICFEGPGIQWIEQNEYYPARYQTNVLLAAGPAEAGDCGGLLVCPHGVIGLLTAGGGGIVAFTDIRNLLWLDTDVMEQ
Chain of EV-A71 3C^pro (Q66478 1549-1731 limits assumed): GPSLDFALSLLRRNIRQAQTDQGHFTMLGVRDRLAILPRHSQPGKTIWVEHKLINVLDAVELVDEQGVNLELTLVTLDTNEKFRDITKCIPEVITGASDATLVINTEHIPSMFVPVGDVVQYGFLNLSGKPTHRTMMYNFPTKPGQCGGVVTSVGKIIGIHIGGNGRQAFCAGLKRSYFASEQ

As for `CC(C)C[C@H](NC(=O)OCc1ccccc1)C(=O)N[C@@H](C[C@@H]1CCNC1=O)C(O)S(=O)(=O)O` (some centres unmarked) [GC376, reference compound], the IC50 was ≤ 160 nM in [1], > 50 µM in [2], ≤ 160 nM in series [3] and > 50 µM in [4].

`CC(C)(C)c1ccc(N(C(=O)c2ccco2)C(C(=O)NC2CCCCC2)c2cccnc2)cc1` (centres unmarked) [Compound 6, 2-[N-(4-tert-butylphenyl)-1-(furan-2-yl)formamido]-N-cyclohexyl-2-(pyridin-3-yl)acetamide]: the “CC50 in Vero E6 cells” value in series [5] is “moderate to high cellular cytotoxicity”.

Take `C[C@H](NC(=O)C(c1cccnc1)N(C(=O)c1ccco1)c1ccc([Si](C)(C)C)cc1)c1ccccc1` (stereo partly drawn) [Compound 14, 2-[1-(furan-2-yl)-N-[4-(trimethylsilyl)phenyl]formamido]-N-[(1S)-1-phenylethyl]-2-(pyridinyl)acetamide]: the “CC50 in Vero E6 cells” value in series [5] is recorded as “moderate to high cellular cytotoxicity”.

As to `CC(C)(C)c1ccc(N(C(=O)c2ccco2)C(C(=O)NC2CC2)c2cccnc2)cc1` (centres unmarked) [Compound 3, 2-[N-(4-tert-butylphenyl)-1-(furan-2-yl)formamido]-N-cyclopropyl-2-(pyridin-3-yl)acetamide], the “CC50 in Vero E6 cells” value in series [5] is recorded as “moderate to high cellular cytotoxicity”.

Consider `CC(C)(C)c1ccc(N(C(=O)c2ccco2)C(C(=O)NC2CCCC2)c2cccnc2)cc1` (centres unmarked) [Compound 5, 2-[N-(4-tert-butylphenyl)-1-(furan-2-yl)formamido]-N-cyclopentyl-2-(pyridin-3-yl)acetamide], for which, in series [6], the CC50 at 5 days is > 100 µM.

`C[C@H](NC(=O)[C@@H](c1cccnc1)N(C(=O)c1ccco1)c1ccc(-c2ccccc2)cc1)c1ccccc1` [Compound 23R, (2R)-2-(N-{[1,1’-biphenyl]-4-yl}-1-(furan-2-yl)formamido)-N-[(1S)-1-phenylethyl]-2-(pyridin-3-yl)acetamide]: in series [7], the “cytotoxicity in Calu-3 cells (not cytotoxic at up to)” value is > 100 µM. The “IC50 against MERS-CoV M^pro” value in series [8] was “not other viral proteases tested”. Further, the “IC50 against EV-A71 3C^pro” value in series [1] (FRET-based enzymatic assay) was “not other viral proteases tested”. Also, the “IC50 against EV-A71 2A^pro” value in [2] (FRET-based enzymatic assay) is reported as “not other viral proteases tested”. Further, in series [9], the IC50 is ≤ 270 nM. Besides, the “cytotoxicity to Vero E6 cells (not cytotoxic at up to)” value in series [5] is > 100 µM. For the same compound, the “IC50 against HCoV-OC43 M^pro” value in series [10] was “not other viral proteases tested”. Further, the “IC50 against EV-D68 3C^pro” value in series [3] (FRET-based enzymatic assay) is on record as “not other viral proteases tested”. In series [4] (FRET-based enzymatic assay), the “IC50 against EV-D68 2A^pro” value is recorded as “not other viral proteases tested”.

As for `O=C(NC1CCCCC1)C(c1cccnc1)N(C(=O)c1ccco1)c1ccc(-c2ccccc2)cc1` (centres unmarked) [Compound 34, 2-(N-{[1,1’-biphenyl]-4-yl}-1-(furan-2-yl)formamido)-N-cyclohexyl-2-(pyridin-3-yl)acetamide], the “CC50 in Vero E6 cells” value in series [5] is “moderate to high cellular cytotoxicity”.

For the compound `C[C@H](NC(=O)C(c1cccnc1)N(C(=O)c1ccno1)c1ccc(C2CCCCC2)cc1)c1ccccc1` (stereo partly drawn) [Compound 36, 2-[N-(4-cyclohexylphenyl)-1-(1,2-oxazol-5-yl)formamido]-N-[(1S)-1-phenylethyl]-2-(pyridin-3-yl)acetamide], the “CC50 in Vero E6 cells” value in series [5] is “moderate to high cellular cytotoxicity”.

Turning to `C[C@H](NC(=O)C(c1cccnc1)N(C(=O)c1ccco1)c1ccc(C2CCCCC2)cc1)c1ccccc1` (stereo partly drawn) [Compound 17, 2-[N-(4-cyclohexylphenyl)-1-(furan-2-yl)formamido]-N-[(1S)-1-phenylethyl]-2-(pyridin-3-yl)acetamide], the “CC50 in Vero E6 cells” value in series [5] is given as “moderate to high cellular cytotoxicity”.

As to `C[C@H](NC(=O)C(c1cccnc1)N(C(=O)c1ccco1)c1ccc(-c2ccco2)cc1)c1ccccc1` (stereo partly drawn) [Compound 18, 2-[1-(furan-2-yl)-N-[4-(furan-2-yl)phenyl]formamido]-N-[(1S)-1-phenylethyl]-2-(pyridin-3-yl)acetamide], in [5], the “CC50 in Vero E6 cells” value is recorded as “moderate to high cellular cytotoxicity”.

For `C[C@H](NC(=O)C(c1cccnc1)N(C(=O)c1ccco1)c1ccc(-c2cccs2)cc1)c1ccccc1` (stereo partly drawn) [Compound 19, 2-[1-(furan-2-yl)-N-[4-(thiophen-2-yl)phenyl]formamido]-N-[(1S)-1-phenylethyl]-2-(pyridin-3-yl)acetamide], in series [5], the “CC50 in Vero E6 cells” value is “moderate to high cellular cytotoxicity”.

With `C[C@H](NC(=O)C(c1cccnc1)N(C(=O)c1cnco1)c1ccc(-c2ccccc2)cc1)c1ccccc1` (stereo partly drawn) [Compound 26, 2-(N-{[1,1’-biphenyl]-4-yl}-1-(1,3-oxazol-5-yl)formamido)-N-[(1S)-1-phenylethyl]-2-(pyridin-3-yl)acetamide], the “CC50 in Vero E6 cells” value in series [5] is given as “moderate to high cellular cytotoxicity”.
